Data published in PubChem BioAssay (NCI).
Several values for one entry are separate records, joined by “and”; a condition that tells them apart may be missing. Equal values may be shown once.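 Method: 48-hour compound exposure of cells in 96-well plates, five concentrations, linear interpolation of endpoints. GI50: concentration for 50% inhibition of growth. TGI marks complete inhibition of growth.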

What was measured:
Experiment in all cases: NCI-60 cell line screen, 48 h
SK-MEL-28 melanoma = test system: SK-MEL-28 melanoma
SN12C renal = test system: SN12C renal
A549 NSCLC = test system: A549 NSCLC
OVCAR-8 ovarian = test system: OVCAR-8 ovarian
TK-10 renal = test system: TK-10 renal
OVCAR-4 ovarian = test system: OVCAR-4 ovarian
UACC-257 melanoma = test system: UACC-257 melanoma
IGROV1 ovarian = test system: IGROV1 ovarian
HS 578T breast = test system: HS 578T breast
NCI-H23 lung = test system: NCI-H23 lung

Compound | GI50 (SK-MEL-28 melanoma) | TGI (SK-MEL-28 melanoma) | GI50 (SN12C renal) | TGI (SN12C renal) [µM] | GI50 (A549 NSCLC) | TGI (A549 NSCLC) | GI50 (OVCAR-8 ovarian) | TGI (OVCAR-8 ovarian) | GI50 (TK-10 renal) | TGI (TK-10 renal) | GI50 (OVCAR-4 ovarian) | TGI (OVCAR-4 ovarian) | GI50 (UACC-257 melanoma) | TGI (UACC-257 melanoma) | GI50 (IGROV1 ovarian) | TGI (IGROV1 ovarian) | GI50 (HS 578T breast) | TGI (HS 578T breast) | GI50 (NCI-H23 lung) | TGI (NCI-H23 lung)
O=C(Nc1ccc(Cl)cc1F)c1cc(Cl)ccc1O | 364 nM | 1.84 µM | 345 nM | 3.95 | 1340 nM | > 100 µM | 619 nM | > 37.2 µM | 1310 nM | > 31.2 µM | 340 nM | > 100 µM | 482 nM | 6.89 µM | 247 nM | > 100 µM | 341 nM | 3.65 µM | 294 nM | 1.91 µM
Cc1cccc2c1NC(=O)C2(c1ccc(O)cc1)c1ccc(O)cc1 | 16400 nM | 46.5 µM | < 10 nM | 15.4 | 21100 nM | > 100 µM | < 19.2 nM | 13.7 µM | 20.6 nM | 39.1 µM | < 10 nM | < 0.0174 µM | 18400 nM | 49.2 µM | 63.4 nM | 47.6 µM | < 10 nM | < 0.0192 µM | 45.9 nM | 31.8 µM
CC(C)NCCCCCNc1cc(O)cc2cccnc12 | > 100000 nM | > 100 µM | > 100000 nM | > 100 | > 100000 nM | > 100 µM | > 100000 nM | > 100 µM | > 100000 nM | > 100 µM | 4140 nM | > 100 µM | 17700 nM | > 75.1 µM | 4810 nM | > 100 µM | > 42500 nM | > 100 µM | > 24600 nM | > 100 µM
Cc1csc(-c2ccc3c(c2)COC3(CCCN(C)C)c2ccc(F)cc2)c1 (stereo not given) | 1770 nM | 3.3 µM | 1790 nM | 3.4 | 2020 nM | 4.24 µM | 2350 nM | 5.69 µM | 1830 nM | 3.72 µM | 1670 nM | 3.11 µM | 1810 nM | 3.76 µM | 1670 nM | 3.32 µM | 1930 nM | 4.44 µM | 1830 nM | 3.44 µM
O=C(Nc1ccc(O)c(NS(=O)(=O)c2ccc(F)cc2)c1)c1ccc(-c2ccccc2)cc1 | 9060 nM | 23.5 µM | 9790 nM | 21.7 | 4810 nM | 29.9 µM | 5320 nM | > 100 µM | 11900 nM | 30.3 µM | 4450 nM | 25.3 µM | 5710 nM | 46.6 µM | 4650 nM | 20.5 µM | 5420 nM | 31.8 µM | 10500 nM | 24.3 µM
O=[N+]([O-])c1ccc(NN=C2c3ccccc3Cc3ccccc32)c([N+](=O)[O-])c1 |  | > 100 µM |  | > 100 |  | > 100 µM |  | > 100 µM |  | > 100 µM |  | > 100 µM |  | > 100 µM |  | > 100 µM |  | > 80.4 µM |  | > 100 µM
CS(=O)(=O)N(CC(=O)O)Cc1ccccc1 |  | > 100 µM |  | > 100 |  | > 100 µM |  | > 100 µM |  | > 100 µM |  | > 100 µM |  | > 100 µM |  | > 100 µM |  | > 100 µM |  | > 100 µM
COc1cccc2cc(-c3nc(C4CCC(C(=O)O)CC4)n4ncnc(N)c34)[nH]c12 (stereo not given) | 175 nM and 169 nM | 1.81 µM and 1.4 µM | 203 nM and 413 nM | > 100 | 1210 nM and 1970 nM | 11.8 µM and > 10 µM | 371 nM and 642 nM | 3.78 µM and > 10 µM | 150 nM and 411 nM | 1.63 µM and 6.11 µM | 155 nM and 288 nM | 2 µM and 3.28 µM | 198 nM and 378 nM | 2.1 µM and 4.19 µM | 192 nM and 237 nM | 1.68 µM and 1.97 µM | 135 nM and 110 nM | 0.627 µM and 0.979 µM | 634 nM and 734 nM | 18.4 µM and > 10 µM
Cc1ccc(C)c(N2C(=O)C(=O)c3c(C)ccc(C)c32)c1 |  | > 100 µM |  | > 100 |  | > 100 µM |  | 51.5 µM |  | 85 µM |  | > 100 µM |  | 48.2 µM |  | 43.4 µM |  | 63.4 µM |  | 70 µM
COc1ccc2c(c1)c(-c1nc(-c3cn(C)c4ncccc34)cs1)cn2CCCCN1CCOCC1 | 1500 nM | 2.97 µM | 3280 nM | 9.22 | 1710 nM | 3.71 µM | 2300 nM | 5.43 µM | 2730 nM | 8.19 µM | 1710 nM | 4.94 µM | 1660 nM | 3.28 µM | 2660 nM | 10.4 µM | 1220 nM | 5.46 µM | 2020 nM | 5.58 µM
COc1cc(C(=O)Nc2cc(O)c(C/C=C(\C)CCC=C(C)C)c(O)c2)cc2c1O[C@]1(C)CC[C@@H](O)C(C)(C)[C@H]1C2 | 178 nM and 629 nM | 13.8 µM | 1950 nM and 2440 nM | 19.9 | 381 nM and 214 nM | 13.9 µM | 4280 nM and 2210 nM | 31.4 µM | 2540 nM | 28.9 µM | 5300 nM and 3140 nM | 32 µM | 4910 nM and 1580 nM | 23.8 µM | 3370 nM and 881 nM | 19.5 µM | 14.4 nM | 14.8 µM | 1610 nM and 2090 nM | 19.7 µM
Cc1cc(O)c(O)c(Oc2cc(C)cc(O)c2O)c1 |  | > 100 µM |  | 59.7 |  | > 100 µM |  | 45.1 µM |  | 36.3 µM |  | 28.8 µM |  | > 100 µM |  | 69.6 µM |  | > 100 µM |  | > 100 µM
